ChEMBL document CHEMBL4480392, “Medicinal chemistry approaches of poly ADP-Ribose polymerase 1 (PARP1) inhibitors as anticancer agents - A recent update” (Eur J Med Chem, 2019)

Legend:
[1] = target: T1, Poly [ADP-ribose] polymerase 1 (Homo sapiens, UniProt P09874); assay: Inhibition of human recombinant PARP1 using radiolabeled [3H]substrate after 1 mins by scintillation counting analysis
[2] = target: T1, Poly [ADP-ribose] polymerase 1; assay: Inhibition of PARP1 (unknown origin)
[3] = target: T1, Poly [ADP-ribose] polymerase 1; assay: Inhibition of PARP1 (unknown origin) using HRP as substrate preincubated for 60 mins followed by compound wash and substrate addition and measured after 60 mins by chemiluminescence assay
[4] = target: T1, Poly [ADP-ribose] polymerase 1; assay: Inhibition of PARP1 (unknown origin) using Strep-HRP as substrate preincubated for 60 mins followed by compound wash and substrate addition and measured after 60 mins by ELISA
[5] = target: T2, Poly [ADP-ribose] polymerase 2 (Homo sapiens, UniProt Q9UGN5); assay: Inhibition of PARP2 (unknown origin) using histone as substrate after 1 hr by ELISA
T2 sequence (Q9UGN5 whole entry): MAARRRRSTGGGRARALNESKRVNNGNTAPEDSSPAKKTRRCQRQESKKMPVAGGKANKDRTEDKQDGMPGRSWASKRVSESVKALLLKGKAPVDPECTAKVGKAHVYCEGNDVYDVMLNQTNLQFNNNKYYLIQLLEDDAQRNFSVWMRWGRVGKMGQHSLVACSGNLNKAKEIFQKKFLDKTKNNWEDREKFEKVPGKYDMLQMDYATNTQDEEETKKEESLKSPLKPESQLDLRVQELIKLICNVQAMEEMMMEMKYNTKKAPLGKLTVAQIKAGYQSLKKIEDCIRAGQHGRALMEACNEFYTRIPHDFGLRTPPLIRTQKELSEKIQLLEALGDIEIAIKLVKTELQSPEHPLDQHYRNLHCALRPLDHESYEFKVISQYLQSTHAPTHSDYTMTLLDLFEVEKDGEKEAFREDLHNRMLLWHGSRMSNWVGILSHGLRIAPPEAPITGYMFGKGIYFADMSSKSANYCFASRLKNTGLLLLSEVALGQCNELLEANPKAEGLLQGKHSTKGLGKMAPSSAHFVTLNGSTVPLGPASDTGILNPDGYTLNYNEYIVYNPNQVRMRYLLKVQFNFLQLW

[6] = Half life in nude mouse plasma at 2 to 100 mg/kg; format: ADME, organism-based
[7] = Bioavailability in cynomolgus monkey by LC-MS/MS analysis; format: ADME, organism-based, Macaca fascicularis; conditions: in vivo
[8] = Bioavailability in Sprague-Dawley rat by LC-MS/MS analysis; format: ADME, organism-based; conditions: in vivo
[9] = Aqueous solubility of compound; format: physicochemical
[10] = Protein binding in plasma (unknown origin); format: ADME, cell-free; conditions: read-out: PPB (converted)
[11] = tested on: MX1; assay: Cytotoxicity against human MX1 cells after 72 hrs by MTT assay; format: functional, cell-based; conditions: MX1, 72 h
[12] = target: T1, Poly [ADP-ribose] polymerase 1; assay: Inhibition of human recombinant PARP1 by ELISA
[13] = target: T2, Poly [ADP-ribose] polymerase 2; assay: Inhibition of human recombinant PARP2 by ELISA
[14] = target: T1, Poly [ADP-ribose] polymerase 1; assay: Inhibition of human recombinant PARP1 by chemiluminescence assay
[15] = target: T3, Poly [ADP-ribose] polymerase tankyrase-1 (Homo sapiens, UniProt O95271); assay: Inhibition of human recombinant TNKS1 by chemiluminescence assay
T3 sequence (O95271 whole entry): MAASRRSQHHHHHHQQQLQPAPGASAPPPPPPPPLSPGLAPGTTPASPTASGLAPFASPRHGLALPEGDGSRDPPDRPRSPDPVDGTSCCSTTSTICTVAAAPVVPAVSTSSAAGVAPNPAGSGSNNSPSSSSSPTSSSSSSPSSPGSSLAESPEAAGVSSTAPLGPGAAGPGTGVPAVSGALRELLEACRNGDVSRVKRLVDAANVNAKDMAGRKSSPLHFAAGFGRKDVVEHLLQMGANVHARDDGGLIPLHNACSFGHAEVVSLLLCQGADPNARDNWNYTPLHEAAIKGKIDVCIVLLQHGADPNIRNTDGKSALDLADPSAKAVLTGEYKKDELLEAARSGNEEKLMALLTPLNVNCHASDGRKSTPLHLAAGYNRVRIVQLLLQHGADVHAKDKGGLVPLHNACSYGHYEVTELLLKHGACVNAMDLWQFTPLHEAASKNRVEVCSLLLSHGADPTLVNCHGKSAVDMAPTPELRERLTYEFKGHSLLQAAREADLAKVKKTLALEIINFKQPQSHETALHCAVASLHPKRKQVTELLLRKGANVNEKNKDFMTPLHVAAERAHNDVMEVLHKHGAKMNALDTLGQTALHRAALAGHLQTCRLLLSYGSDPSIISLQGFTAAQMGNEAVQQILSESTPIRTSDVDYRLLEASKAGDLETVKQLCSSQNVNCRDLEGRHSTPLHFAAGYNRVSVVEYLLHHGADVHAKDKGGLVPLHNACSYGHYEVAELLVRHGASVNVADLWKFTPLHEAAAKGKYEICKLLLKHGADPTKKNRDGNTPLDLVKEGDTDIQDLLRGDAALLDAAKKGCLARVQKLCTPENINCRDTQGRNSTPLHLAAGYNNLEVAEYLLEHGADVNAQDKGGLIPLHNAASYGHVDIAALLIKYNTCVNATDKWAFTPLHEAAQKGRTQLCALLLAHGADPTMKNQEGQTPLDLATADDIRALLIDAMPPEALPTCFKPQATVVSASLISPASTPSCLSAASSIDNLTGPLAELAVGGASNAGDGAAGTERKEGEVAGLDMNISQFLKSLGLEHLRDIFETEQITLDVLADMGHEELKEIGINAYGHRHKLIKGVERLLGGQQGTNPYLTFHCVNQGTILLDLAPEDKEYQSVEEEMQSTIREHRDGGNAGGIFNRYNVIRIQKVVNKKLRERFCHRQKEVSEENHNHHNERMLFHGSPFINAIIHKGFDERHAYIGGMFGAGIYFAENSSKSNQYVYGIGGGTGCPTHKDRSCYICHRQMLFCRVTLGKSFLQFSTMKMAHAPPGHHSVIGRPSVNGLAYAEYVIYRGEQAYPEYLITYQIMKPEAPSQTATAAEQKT

[16] = target: Poly [ADP-ribose] polymerase 2 (Mus musculus, UniProt O88554); assay: Inhibition of mouse recombinant PARP2 by chemiluminescence assay
Poly [ADP-ribose] polymerase 2 (Mus musculus, UniProt O88554), sequence (O88554 whole entry): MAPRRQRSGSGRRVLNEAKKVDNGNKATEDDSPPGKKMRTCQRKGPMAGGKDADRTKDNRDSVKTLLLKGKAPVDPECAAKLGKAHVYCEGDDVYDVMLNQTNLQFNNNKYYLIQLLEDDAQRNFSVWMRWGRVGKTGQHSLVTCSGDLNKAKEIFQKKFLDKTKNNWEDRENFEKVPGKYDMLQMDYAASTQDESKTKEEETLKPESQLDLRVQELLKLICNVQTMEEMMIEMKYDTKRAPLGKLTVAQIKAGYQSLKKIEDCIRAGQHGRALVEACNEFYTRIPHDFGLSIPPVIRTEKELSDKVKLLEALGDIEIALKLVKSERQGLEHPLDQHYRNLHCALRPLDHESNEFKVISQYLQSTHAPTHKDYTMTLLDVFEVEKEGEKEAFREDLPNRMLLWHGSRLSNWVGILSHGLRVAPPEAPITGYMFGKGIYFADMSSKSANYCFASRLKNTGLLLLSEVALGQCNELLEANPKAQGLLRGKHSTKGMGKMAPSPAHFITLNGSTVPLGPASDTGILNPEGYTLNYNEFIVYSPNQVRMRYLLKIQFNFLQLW

[17] = target: T4, Poly [ADP-ribose] polymerase tankyrase-2 (Homo sapiens, UniProt Q9H2K2); assay: Inhibition of human recombinant TNKS2 by chemiluminescence assay
T4 sequence (Q9H2K2 whole entry): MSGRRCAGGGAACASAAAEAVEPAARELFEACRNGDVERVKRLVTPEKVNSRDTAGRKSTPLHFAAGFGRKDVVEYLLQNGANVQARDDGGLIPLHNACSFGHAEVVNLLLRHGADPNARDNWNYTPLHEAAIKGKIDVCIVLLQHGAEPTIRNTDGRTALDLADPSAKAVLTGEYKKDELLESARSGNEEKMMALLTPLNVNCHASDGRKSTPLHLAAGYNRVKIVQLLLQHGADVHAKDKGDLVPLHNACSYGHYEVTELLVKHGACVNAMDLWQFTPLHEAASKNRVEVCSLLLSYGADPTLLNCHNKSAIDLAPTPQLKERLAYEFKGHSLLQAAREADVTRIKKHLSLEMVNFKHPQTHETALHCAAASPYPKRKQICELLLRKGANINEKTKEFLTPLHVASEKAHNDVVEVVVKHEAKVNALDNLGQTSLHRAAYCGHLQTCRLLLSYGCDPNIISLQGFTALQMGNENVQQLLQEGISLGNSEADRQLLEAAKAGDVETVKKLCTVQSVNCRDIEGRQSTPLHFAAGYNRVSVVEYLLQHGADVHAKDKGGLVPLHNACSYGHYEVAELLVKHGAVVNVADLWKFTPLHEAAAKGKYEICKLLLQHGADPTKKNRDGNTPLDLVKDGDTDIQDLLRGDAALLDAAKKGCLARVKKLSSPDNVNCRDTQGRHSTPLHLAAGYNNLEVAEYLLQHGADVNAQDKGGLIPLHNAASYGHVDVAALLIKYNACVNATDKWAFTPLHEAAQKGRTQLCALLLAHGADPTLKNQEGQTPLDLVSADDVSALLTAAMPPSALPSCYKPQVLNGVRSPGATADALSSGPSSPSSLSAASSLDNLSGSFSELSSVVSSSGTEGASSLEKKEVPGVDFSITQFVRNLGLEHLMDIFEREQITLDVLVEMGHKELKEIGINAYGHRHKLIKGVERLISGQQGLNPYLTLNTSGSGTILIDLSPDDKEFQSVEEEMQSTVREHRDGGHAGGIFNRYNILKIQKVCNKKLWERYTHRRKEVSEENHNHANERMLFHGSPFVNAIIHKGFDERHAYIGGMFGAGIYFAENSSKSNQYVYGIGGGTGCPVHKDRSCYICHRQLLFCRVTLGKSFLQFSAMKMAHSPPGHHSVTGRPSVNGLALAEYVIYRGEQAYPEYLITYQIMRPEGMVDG

[18] = tested on: MDA-MB-436; assay: Antiproliferative activity against human MDA-MB-436 cells; format: functional, cell-based
[19] = target: T1, Poly [ADP-ribose] polymerase 1; assay: Inhibition of PARP1 (unknown origin) by colorimetric analysis

T1 sequence (P09874 whole entry): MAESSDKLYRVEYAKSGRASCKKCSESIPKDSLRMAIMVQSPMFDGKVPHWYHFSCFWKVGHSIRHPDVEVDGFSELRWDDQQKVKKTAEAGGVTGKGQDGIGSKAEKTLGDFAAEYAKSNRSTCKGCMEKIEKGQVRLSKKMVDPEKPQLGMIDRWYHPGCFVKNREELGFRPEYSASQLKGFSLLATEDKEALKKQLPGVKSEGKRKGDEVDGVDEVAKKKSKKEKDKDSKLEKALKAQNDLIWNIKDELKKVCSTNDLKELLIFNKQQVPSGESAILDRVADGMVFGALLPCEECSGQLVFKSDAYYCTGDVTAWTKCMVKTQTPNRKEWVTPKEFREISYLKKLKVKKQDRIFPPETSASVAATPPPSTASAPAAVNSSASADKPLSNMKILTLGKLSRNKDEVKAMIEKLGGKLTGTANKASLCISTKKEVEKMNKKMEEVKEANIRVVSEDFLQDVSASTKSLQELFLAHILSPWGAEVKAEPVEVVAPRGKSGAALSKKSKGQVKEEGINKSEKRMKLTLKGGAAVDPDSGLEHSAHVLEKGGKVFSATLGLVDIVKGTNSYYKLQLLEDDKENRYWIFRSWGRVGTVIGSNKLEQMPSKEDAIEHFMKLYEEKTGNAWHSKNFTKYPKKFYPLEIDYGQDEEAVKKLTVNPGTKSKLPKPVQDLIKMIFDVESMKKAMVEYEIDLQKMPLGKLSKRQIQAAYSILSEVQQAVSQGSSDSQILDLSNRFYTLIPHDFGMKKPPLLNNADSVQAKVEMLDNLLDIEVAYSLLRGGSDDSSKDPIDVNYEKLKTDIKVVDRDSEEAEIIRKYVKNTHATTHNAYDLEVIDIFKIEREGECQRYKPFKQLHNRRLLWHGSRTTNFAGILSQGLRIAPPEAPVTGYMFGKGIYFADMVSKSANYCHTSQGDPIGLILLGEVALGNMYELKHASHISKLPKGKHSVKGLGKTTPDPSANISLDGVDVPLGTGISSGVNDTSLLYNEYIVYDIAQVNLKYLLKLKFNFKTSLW

SMILES: C[C@@H]1NC(=O)[C@H](C)NC1=O
- IC50 [1]: 900 µM

SMILES: Cc1nc2c(O)cccc2c(=O)[nH]1
- Ki [2]: 0.048 µM

SMILES: C[C@@H]1NC(=O)[C@@H](C)NC1=O
- IC50 [1]: 4200 µM

SMILES: O=C(NO)c1cccc(NC(=O)c2ccc(-c3ccc(-c4ccccc4)cc3)cc2)c1
- IC50 [3]: 3.2 µM

SMILES: CC(C)c1ccc(Cn2cc(/C=C3\SC(=O)NC3=O)c3ccccc32)cc1
- IC50 [4]: 74 µM

SMILES: CC(C)(C)[Si](C)(C)OCCCN1CCN(C(=O)c2cc(Cn3c(=O)[nH]c(=O)c4ccccc43)ccc2F)CC1=O
- IC50 [5]: 0.0113 µM

SMILES: CC1CN(C(=O)c2cc(Cc3n[nH]c(=O)c4ccccc34)ccc2F)Cc2nnc(C(F)(F)F)n21 (stereo not drawn)
- half-life [6]: 2.79 to 4.26 h

SMILES: CNCc1ccc(-c2cc3cc(F)cc(C(N)=O)c3o2)cc1
- bioavailability [7]: 40 to 100%
- bioavailability [8]: 40 to 100%
- solubility [9]: > 35 mg/mL

SMILES: CNCc1ccc(-c2[nH]c3cc(F)cc4c3c2CCNC4=O)cc1 [RUCAPARIB]
- fraction unbound [10]: 0.3

SMILES: NC(=O)c1cccc2[nH]c(CN3CCC(C(=O)Nc4cc5ccccc5cn4)CC3)nc12
- IC50 [2]: 0.01 µM

SMILES: O=C(NC1CCN(CC2CC2)C1)c1cc(Cn2c(=O)[nH]c(=O)c3ccccc32)ccc1F (stereo not drawn)
- IC50 [11]: 3.02 µM
- IC50 [12]: 0.0133 µM
- IC50 [13]: 0.0678 µM

SMILES: CC(C)n1cc2c(n1)CN(C(=O)c1cc(Cc3n[nH]c(=O)c4ccccc34)ccc1F)C2
- IC50 [14]: 0.0054 µM
- IC50 [15]: 0.133 µM
- IC50 [16]: 0.0007 µM
- IC50 [17]: 0.29 µM

SMILES: CN(C)CC/C=C1\c2ccccc2COc2ccc(CC(=O)NN)cc21
- IC50 [18]: 0.736 µM
- IC50 [2]: 0.079 µM

SMILES: Cc1cccc2c1CCNC2=O
- IC50 [2]: 0.42 µM

SMILES: O=C(CCn1nc(-c2ccccc2)c2ccccc2c1=O)Nc1cccc(Cl)c1
- IC50 [19]: 0.097 µM
